Data published in PubChem BioAssay AID488840 (Broad Institute, 2010).
Calls of active or inactive are those of the source.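 The calls were made as follows: active = half-maximal dose of signal decrease from fit no higher than ten times the top valid tested dose; inconclusive = fit invalid, or curve flat with 30 to 70% inhibition; inactive = the rest.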

Biological target: Lysine-specific demethylase 4A (Homo sapiens) (UniProt O75164)
Assay: inhibition of JMJD2A H3K9me3 demethylation – biochemical, DELFIA europium, cherry-picked samples, selectivity assay for GASC-1 inhibitor project, dose response (AID 488840);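 also: europium signal reports the dimethyl H3K9 product detected by antibody so inhibitors lower it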
Details: GST-JMJD2A(1-420) H3K9me3 demethylation

Chain of Lysine-specific demethylase 4A (Homo sapiens) (O75164 whole entry, looked up): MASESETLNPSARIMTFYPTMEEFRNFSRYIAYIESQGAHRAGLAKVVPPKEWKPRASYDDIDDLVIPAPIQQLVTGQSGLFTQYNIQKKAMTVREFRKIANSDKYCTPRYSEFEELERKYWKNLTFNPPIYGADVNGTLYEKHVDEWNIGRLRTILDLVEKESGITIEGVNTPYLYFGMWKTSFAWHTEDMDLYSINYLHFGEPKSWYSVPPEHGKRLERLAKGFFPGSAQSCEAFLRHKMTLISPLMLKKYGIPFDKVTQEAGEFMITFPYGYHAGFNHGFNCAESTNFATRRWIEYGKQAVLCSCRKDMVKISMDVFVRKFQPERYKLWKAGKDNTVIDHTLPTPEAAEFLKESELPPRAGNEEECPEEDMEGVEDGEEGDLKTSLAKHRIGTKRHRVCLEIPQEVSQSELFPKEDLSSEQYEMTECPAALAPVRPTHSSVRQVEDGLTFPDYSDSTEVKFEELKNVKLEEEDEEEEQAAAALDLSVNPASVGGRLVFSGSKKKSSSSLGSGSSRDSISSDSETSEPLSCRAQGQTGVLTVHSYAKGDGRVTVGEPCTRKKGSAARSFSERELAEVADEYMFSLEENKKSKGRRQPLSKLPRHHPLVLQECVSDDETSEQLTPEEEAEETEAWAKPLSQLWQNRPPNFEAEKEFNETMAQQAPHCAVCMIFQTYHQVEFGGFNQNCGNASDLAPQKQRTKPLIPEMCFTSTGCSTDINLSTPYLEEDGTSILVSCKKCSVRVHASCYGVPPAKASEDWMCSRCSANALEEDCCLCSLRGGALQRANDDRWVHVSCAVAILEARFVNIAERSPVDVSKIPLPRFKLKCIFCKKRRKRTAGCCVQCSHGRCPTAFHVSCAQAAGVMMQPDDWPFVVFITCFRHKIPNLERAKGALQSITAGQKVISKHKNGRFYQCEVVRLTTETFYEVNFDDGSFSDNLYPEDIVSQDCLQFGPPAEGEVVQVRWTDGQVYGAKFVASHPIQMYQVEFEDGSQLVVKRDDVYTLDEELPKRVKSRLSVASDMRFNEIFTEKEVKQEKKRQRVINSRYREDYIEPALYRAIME

AC50: > 6 µM (inactive)
Compound: CC(=O)C[C@@H](O)CC(=O)[C@H]1OC(=O)[C@H](C)CCCCc2ccccc21
